From patent US8916543B1 (priority 2009, dated 2014)
Entries after “also recorded” stand apart in the source; their conditions may differ.

Legend:
[1] = target: T1, α-toxin (Staphylococcus aureus, UniProt P09616); conditions: cited from earlier work
[2] = target: T1, α-toxin; format: cell-based
[3] = system: S. aureus strain 8325-4; test: Experimental keratitis in rabbits, S. aureus strain 8325-4, topical treatment; format: in vivo, Staphylococcus aureus; conditions: rabbit eyes
Description: FIG. 4 is a set of graphs that show the effect of CD-cholesterol treatment of eyes infected with strain 8325-4. Rabbit corneas were injected with 10^2 CFU of S. aureus 8325-4. Eyes were randomized and treated with 1% CD-cholesterol, 1% CD, or PBS from 7 to 13 hours PI. At 7 hours PI, eyes were treated with a single topical drop every 15 minutes from 7 to 8 hours PI. At 8.5 hours PI, eyes were treated with a single topical drop every 30 minutes until 13 hours PI (a total of 15 drops). At 13 hours PI, the eyes were evaluated by SLE (A) and erosion diameters were measured using fluorescein strips (B) The pathologic changes were observed then averaged and statistical comparisons were performed using one-way ANOVA. The erosions were averaged and statistical comparisons using analysis of variance and Student's t-test were performed. Error bars are the standard error of the mean (SEM). P≦0.05, for either test, was considered significant. […] The eyes treated with 1% CD or with PBS had statistically similar SLE scores (P=0.4002). […] The eyes treated with 1% CD-cholesterol or 1% CD had erosion diameters similar to one another (P=0.4002).
(§1) Rabbits (n≧4 eyes per group) were infected as previously described, injecting approximately 100 colony forming units (CFU) of strain 8325-4 or strain 60171, a clinical isolate, in 10 μL of TSB into the stroma of the cornea. Accuracy of the inoculum size was verified by plating aliquots (100 μL) of serial dilutions in triplicate on TSA.
At 7 hours postinfection (PI), treatment began and consisted of a single topical drop of PBS, 1% CD, or 1% CD-cholesterol every 15 minutes from 7 to 8 hours PI. Then, beginning at 8.5 hours PI, a single drop was administered every 30 minutes until 13 hours PI; a total of 15 drops per eye. At 13 hours PI, corneal erosions were measured and all eyes underwent slit lamp examination (SLE) to quantify pathologic changes. […]
Corneas of rabbits infected with either S. aureus 8325-4 or 60171 were harvested at 14 hours PI and bacteria were quantified as described previously. […]

[4] = system: S. aureus strain 60171; test: Experimental keratitis in rabbits, S. aureus clinical isolate 60171, topical treatment; format: in vivo, Staphylococcus aureus; conditions: rabbit eyes
Description: FIG. 5 is a set of graphs that show the effect of CD-cholesterol treatment of eyes infected with strain 60171. Eyes were treated and evaluated as described for FIG. 3. Error bars are the SEM. […] In contrast, the CD-treated eyes had similar SLE scores compared to the PBS-treated eyes (P=0.7403). […] There was no statistical difference between the eyes treated with 1% CD and the eyes treated with PBS (P=0.2131).
as §1
At 7 hours postinfection (PI), treatment began and consisted of a single topical drop of PBS, 1% CD, or 1% CD-cholesterol every 15 minutes from 7 to 8 hours PI. Then, beginning at 8.5 hours PI, a single drop was administered every 30 minutes until 13 hours PI; a total of 15 drops per eye. At 13 hours PI, corneal erosions were measured and all eyes underwent slit lamp examination (SLE) to quantify pathologic changes.
SLE of pathologic changes of rabbit eyes was performed by two masked observers as described previously.
Corneas of rabbits infected with either S. aureus 8325-4 or 60171 were harvested at 14 hours PI and bacteria were quantified as described previously.
These finding raised the possibility that CD-cholesterol could treat corneas infected with S. aureus. Rabbit corneas were injected with either S. aureus strain 8325-4 or S. aureus clinical isolate 60171. Rabbit eyes were treated from 7 to 13 hours PI with PBS, 1% CD, or 1% CD-cholesterol. […]
Strain 60171, an ocular clinical isolate, was injected into the corneas of rabbits to determine the effectiveness of treatments with CD-cholesterol, CD, or PBS. As described above, the pathologic changes and erosion development were observed via SLE at 13 hours PI (FIG. 2B) whereas the number of surviving bacteria was determined at 14 hours PI.

[5] = target: α-toxin heptamer (Staphylococcus aureus, UniProt P09616); conditions: literature; cited from earlier work
[6] = 1% topical drops 7 to 13 hours PI (15 drops), 13 hours PI
[7] = 1% topical drops 7 to 13 hours PI, 13 hours PI
[8] = 1% topical drops 7 to 13 hours PI, 14 hours PI

T1 sequence (P09616 27-319 limits assumed): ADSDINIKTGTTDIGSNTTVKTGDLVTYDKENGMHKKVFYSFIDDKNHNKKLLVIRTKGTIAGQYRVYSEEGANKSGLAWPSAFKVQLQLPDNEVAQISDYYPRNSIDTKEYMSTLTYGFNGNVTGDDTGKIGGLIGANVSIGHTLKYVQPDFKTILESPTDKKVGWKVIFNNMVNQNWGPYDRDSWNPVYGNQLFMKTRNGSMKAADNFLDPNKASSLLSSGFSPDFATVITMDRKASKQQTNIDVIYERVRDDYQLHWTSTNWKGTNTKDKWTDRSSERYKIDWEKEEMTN
Chain of α-toxin heptamer (P09616 27-319 limits assumed): as above

Compound	inhibition of α-toxin activity [1]	reduction in α-toxin hemolytic titer [2]	average SLE score [3, 6]	corneal erosion diameter [3, 7] [mm]	number of surviving S. aureus [3, 8]	average SLE score [4, 6]	diameter of corneal epithelial erosions [4, 7] [mm]	bacteria in the corneas [4, 8]	binding to the pore of α-toxin heptamer [5]
C[C@]12CCC(=O)C=C1CC[C@@H]1[C@@H]2[C@@H](O)C[C@@]2(C)[C@H]1CC[C@]2(O)C(=O)CO [hydrocortisone]	weakly inhibited								
methyl-β-cyclodextrin [CD]		twofold; also recorded: two-fold	9.23±0.39	4.55±0.28	9.36×10^6±4.22×10^5 bacteria per cornea	9.02±0.90	4.83±0.31	2.42×10^7±8.96×10^6 bacteria	bind weakly
